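A five-concentration, 48-hour dose response in 96-well plates underlies each endpoint, interpolated linearly between surrounding concentrations. TGI is the concentration that stops growth completely.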
Columns and labels:
Assay in all cases: DTP human tumour cell line panel, 48 h
[1] = system: T-47D breast
[2] = system: A498 renal
[3] = system: HOP-62 NSCLC
[4] = system: M14 melanoma
[5] = system: EKVX NSCLC
[6] = system: HOP-92 NSCLC
[7] = system: SK-MEL-5 melanoma
[8] = system: CAKI-1 renal
[9] = system: HCC-2998 colon
[10] = system: NCI-H460 lung
[11] = system: A549 NSCLC
[12] = system: U251 CNS
[13] = system: SK-MEL-2 melanoma
[14] = system: MDA-MB-435
[15] = system: SR leukemia
[16] = system: RXF 393 renal
[17] = system: MCF7 breast
[18] = system: NCI-H522 lung
[19] = system: MDA-N
[20] = system: SN12C renal

Row | SMILES | TGI [1] | TGI [2] | TGI [3] | TGI [4] | TGI [5] | TGI [6] | TGI [7] | TGI [8] | TGI [9] | TGI [10] | TGI [11] | TGI [12] | TGI [13] | TGI [14] | TGI [15] | TGI [16] | TGI [17] | TGI [18] | TGI [19] | TGI [20]
1 | C/C(=N\NS(=O)(=O)c1ccc(C)cc1)c1ccccn1 | > 100 µM | > 100 µM | > 100 µM | > 100 µM | > 100 µM | > 100 µM | > 100 µM | > 100 µM | > 100 µM | > 100 µM | > 100 µM | > 100 µM | > 100 µM | > 100 µM | > 100 µM | > 100 µM | > 100 µM |  |  | 
2 | C=CCCON(C(=O)OC(C)(C)C)c1ccccc1 | > 100 µM | > 100 µM | > 100 µM | > 100 µM | > 100 µM | > 100 µM | > 100 µM | > 100 µM |  | > 100 µM | > 100 µM | > 100 µM | > 100 µM | > 100 µM |  | > 100 µM |  | > 100 µM | > 100 µM | > 100 µM
3 | N[C@@H]1CCN(c2c(F)cc3c(=O)c(C(=O)O)cn4c3c2Oc2c-4ccc3c2ccc2ccccc23)C1 |  | > 100 µM | > 100 µM | > 100 µM | > 100 µM | 61.7 µM | > 100 µM | > 100 µM | 3.56 µM | 2.91 µM | > 100 µM | 10.5 µM | > 100 µM | > 100 µM | > 100 µM | > 100 µM | 3.34 µM | > 100 µM | > 100 µM | > 100 µM
4 | CC1(C)OCN(c2ccc(N3CCOCC3)cc2)Cn2c1nc1ccccc12 |  | > 100 µM | > 100 µM | > 100 µM | > 100 µM | > 100 µM |  |  | > 100 µM | > 100 µM | > 100 µM | > 100 µM | > 100 µM |  | 92.7 µM | > 100 µM |  | > 100 µM |  | > 100 µM
5 | O=C1COc2cc(NC(=S)Nc3ccccc3)ccc2N1 |  |  | > 100 µM | > 100 µM | > 100 µM | > 100 µM | > 100 µM | > 100 µM | > 100 µM | > 100 µM | > 100 µM | > 100 µM | > 100 µM |  | > 100 µM | > 100 µM |  | > 100 µM |  | > 100 µM
6 | COc1ccc(-c2c(C(C)=O)c(-c3ccccc3)n(C3OC(CO)C(O)C(O)C3O)c(=S)c2C#N)cc1 (stereo not drawn) | > 100 µM | > 100 µM | > 100 µM | > 100 µM | > 100 µM |  | > 100 µM | > 100 µM | > 100 µM | > 100 µM | > 100 µM | > 100 µM |  | > 100 µM |  | > 100 µM | > 100 µM | > 100 µM | > 100 µM | > 100 µM
7 | CC12C=CC(C)(C3C(=O)C4C(C(=O)C31)C1(C)C=CC4(C)S1=O)S2=O (stereo not drawn) |  |  | > 100 µM | > 100 µM | > 100 µM |  | > 100 µM | > 100 µM | > 100 µM | > 100 µM | > 100 µM |  |  |  |  | > 100 µM |  | > 100 µM | > 100 µM | 
8 | Cc1cc(C)c2c(=O)cc(-c3cccc4ccccc34)[nH]c2n1 | > 100 µM | 4.72 µM | > 100 µM | > 51.4 µM | > 100 µM | > 77.1 µM | 1.74 µM | > 100 µM | 7.37 µM | > 100 µM | > 100 µM | 23.8 µM |  | 0.513 µM | > 100 µM | > 37.1 µM | > 100 µM |  |  | > 100 µM
9 | CC(=O)c1ccc(NC(=O)/C(CC(=O)c2sc(-c3cccnc3)nc2C)=N/NC(N)=O)cc1 |  | > 100 µM |  | > 100 µM |  |  | > 100 µM | 86 µM |  | > 100 µM | 71.2 µM | > 100 µM | > 100 µM |  | > 100 µM |  |  | > 100 µM |  | > 100 µM
10 | COc1c(=O)cc2cc[nH]c3cc[nH]c1c23 |  | > 100 µM |  | > 100 µM | > 100 µM | > 100 µM | > 100 µM | > 100 µM | > 100 µM | > 100 µM | > 100 µM | > 100 µM | > 100 µM | > 100 µM | > 100 µM | > 100 µM | 92.6 µM | 12.1 µM | > 100 µM | > 100 µM
11 | CC1(C)C2CCC1(C)C(N/C(Sc1ccccc1)=C(/C(Cl)=C(Cl)Cl)[N+](=O)[O-])C2 (stereo not drawn) | 31.2 µM | 28.2 µM | 62.9 µM | 25.9 µM | 57.8 µM |  |  | 28.5 µM | 28.5 µM | 32.7 µM | 45.9 µM | 23.5 µM | 25 µM | 25.9 µM |  |  | 24 µM |  | 27.6 µM | 31 µM
12 | CCOC1C(Br)Cn2c(=O)c3cc4ccccc4cc3c(=O)n2C1C (stereo not drawn) |  | 78.7 µM | > 100 µM | > 100 µM | > 100 µM | > 100 µM | > 100 µM | > 100 µM | > 100 µM | > 100 µM | > 100 µM | > 100 µM | > 100 µM |  | > 100 µM | > 100 µM |  |  |  | > 100 µM
13 | N#CSCC(Cl)=CCl (mixture of isomers) | > 100 µM | > 100 µM | > 100 µM | > 100 µM | > 100 µM | > 100 µM | > 100 µM |  | > 100 µM | > 100 µM | > 100 µM | > 100 µM | > 100 µM | > 100 µM | > 100 µM | > 100 µM |  | > 100 µM | > 100 µM | > 100 µM
14 | N#Cc1c(-c2ccc(Cl)cc2)c2c(n(C3OC(CO)C(O)C(O)C3O)c1=S)CCCC2 (stereo not drawn) |  | > 100 µM | > 100 µM | > 100 µM | > 100 µM | > 100 µM | 80.3 µM | > 100 µM | > 100 µM | > 100 µM | > 100 µM | > 100 µM | > 100 µM | > 100 µM | > 100 µM |  | > 100 µM | > 100 µM | > 100 µM | > 100 µM
15 | Cc1ccc(-n2[nH]nc(C(N)=O)c2=O)cc1 | > 100 µM |  | > 100 µM | > 100 µM | > 100 µM |  | > 100 µM | > 100 µM | > 100 µM | > 100 µM | > 100 µM | > 100 µM |  | > 100 µM |  | > 100 µM | > 100 µM | > 100 µM | > 100 µM | > 100 µM

Source: PubChem BioAssay (NCI)
